Target: T1, 15-lipoxygenase (Homo sapiens, UniProt P16050)
T1 sequence (P16050 1-662): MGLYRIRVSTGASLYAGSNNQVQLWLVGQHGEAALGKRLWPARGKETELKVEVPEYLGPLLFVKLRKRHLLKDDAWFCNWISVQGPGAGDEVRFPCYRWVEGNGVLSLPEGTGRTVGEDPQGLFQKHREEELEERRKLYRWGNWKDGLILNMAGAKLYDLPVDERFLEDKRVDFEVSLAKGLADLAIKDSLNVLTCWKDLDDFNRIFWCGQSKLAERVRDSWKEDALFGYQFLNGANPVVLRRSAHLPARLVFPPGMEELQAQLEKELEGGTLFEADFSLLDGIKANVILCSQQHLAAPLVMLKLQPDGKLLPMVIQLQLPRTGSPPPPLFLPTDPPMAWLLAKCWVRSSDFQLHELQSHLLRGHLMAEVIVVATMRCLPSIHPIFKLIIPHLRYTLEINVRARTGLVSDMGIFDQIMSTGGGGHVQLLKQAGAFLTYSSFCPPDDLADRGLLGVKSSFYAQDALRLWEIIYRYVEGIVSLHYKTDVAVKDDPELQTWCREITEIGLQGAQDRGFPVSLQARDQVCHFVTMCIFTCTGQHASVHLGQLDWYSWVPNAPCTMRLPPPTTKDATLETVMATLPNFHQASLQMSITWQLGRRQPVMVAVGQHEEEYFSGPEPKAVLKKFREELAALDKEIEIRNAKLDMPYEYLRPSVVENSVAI
Assay: 15-lipoxygenase inhibition, DPPP fluorescence assay with linoleic acid
Type: biochemical
Conditions: biological test method; test concentration not given
Method: The assay employed takes advantage of the ability of lipid hydroperoxides to oxidize the non-fluorescent diphenyl-1-pyrenylphosphine (DPPP) to its corresponding fluorescent phosphine oxide. Fluorescence is measured using a dual-scanning microplate spectrofluorometer, Spectramax Gemini, from Molecular Devices. DPPP was purchased from Molecular Probes. Linoleic acid was from Biomol and PBS (phosphate buffered saline) from Gibco Life Technologies. The assay is performed in 96-well plates at room temperature (20-22° C.). The following are added (in the following order) to each well:
a) 35 μl of Dulbecco's phosphate buffered saline (PBS);
b) inhibitor (i.e. compound) or vehicle (0.5 μl DMSO);
c) 10 μL of a 5× concentrated 15-lipoxygenase solution in PBS. The plates are incubated for 5 minutes at room temperature;
d) 5 μl of 2 mM linoleic acid in PBS. The plate is then incubated for 20 minutes at room temperature;
e) the enzymatic reaction is terminated by the addition of 50 μl methanol; and
f) 50 μl of 200 μM DPPP in methanol is added to each well.
After 30 minutes at room temperature, the fluorescence can be read using an excitation wavelength of 358 nm and an emission wavelength of 379 nm.

Structure (SMILES) | inhibition of 15-lipoxygenase [%]
CCOc1ccccc1C(=O)n1ccc(C(=O)Nc2cc(Cl)ccc2C#N)n1 [Example 26, 1-(2-Ethoxybenzoyl)-1H-pyrazole-3-carboxylic acid (5-chloro-2-cyanophenyl)amide] | 45
COC(=O)c1ccsc1NC(=O)c1ccn(C(=O)c2cc(F)ccc2C)n1 [Example 8, 2-{[1-(5-Fluoro-2-methylbenzoyl)-1H-pyrazole-3-carbonyl]amino}-thiophene-3-carboxylic acid methyl ester] | 50
O=C(Nc1cccnc1)c1ccn(C(=O)c2ccccc2)n1 [Example 1, 1-Benzoyl-1H-pyrazole-3-carboxylic acid pyridin-3-ylamide] | 45
CCOc1ccccc1C(=O)n1ccc(C(=O)Nc2cc(C)no2)n1 [Example 14, 1-(2-Ethoxybenzoyl)-1H-pyrazole-3-carboxylic acid (3-methylisoxazol-5-yl)amide] | 39
CCCCCc1ccc(C(=O)n2ccc(C(=O)Nc3ccc(N(C)C)cc3)n2)cc1 [Example 23, 1-(4-Pentylbenzoyl)-1H-pyrazole-3-carboxylic acid (4-dimethylaminophenyl)amide] | 44
